Here are results for six compounds from patent US7696148B1, “Administration of products of the 5-lipoxygenase metabolic pathway to enhance antimicrobial defense” (Board of Trustees of Michigan State University, priority 1996, dated 2010).

For test [1], the system named is normal rat alveolar macrophages. The test can be described thus: Phagocytosis of K. pneumoniae by normal rat alveolar macrophages (phagocytic index). Format: cell-based, Wistar rats. As to the method:
(§1) For assays of bacterial phagocytosis and killing, alveolar macrophages were purified from bronchoalveolar lavage cells by adherence for 1 hour in HBSS and studied in monolayer culture. Adherent cells were preincubated with 5% K. pneumoniae-specific immune serum (as a source of both complement and specific opsonizing antibody) for 5 minutes at 37° C. prior to assays. Phagocytosis was studied by incubating 10^5 alveolar macrophages with 10^6 K. pneumoniae in each well of an 8-well Labtek® plate (Nunc) for 1 hour at 37° C.; in some experiments, exogenous LTB4 (Cayman) was added concomitantly with bacteria. The supernatants were aspirated and the cells were washed 3 times with HBSS. The slides were then allowed to air dry, Diff-Quik® (Difco) staining was performed, and 200 cells per well were counted to determine number of intracellular K. pneumoniae and percent of alveolar macrophages containing bacteria. Phagocytic index was calculated as the mean percentage of alveolar macrophages containing bacteria multiplied by the mean number of bacteria per alveolar macrophage.
Alveolar macrophages from Wistar rats were adhered and then incubated for 1 hour with K. pneumoniae alone or in the presence of 1 nM of several 5-LO metabolites (LTB4, LTC4, and 5-HETE). Phagocytic index was subsequently determined as described above in the General Methods.
A related experiment was also performed to determine if the ability of exogenous LTB4 to enhance bacterial phagocytosis is mediated by its interaction with LTB4 receptors. This experiment was based on the fact that pretreatment with LTB4 desensitizes cells to subsequent LTB4 responsiveness; though an understanding of the mechanism of this effect is not required to practice the present invention, the desensitization is believed to occur by down-regulating receptor expression or coupling. For this experiment, cells were pretreated with LTB4 (1 nM) for 1 hour, washed, and incubated with bacteria plus LTB4.

In another test the target is T1, 5-LO (Mus musculus, UniProt P48999).
T1 construct: from tissue; host or cells: whole animal: wild type mice (129/SvEv, The Jackson Laboratory)
T1 sequence (P48999 1-674): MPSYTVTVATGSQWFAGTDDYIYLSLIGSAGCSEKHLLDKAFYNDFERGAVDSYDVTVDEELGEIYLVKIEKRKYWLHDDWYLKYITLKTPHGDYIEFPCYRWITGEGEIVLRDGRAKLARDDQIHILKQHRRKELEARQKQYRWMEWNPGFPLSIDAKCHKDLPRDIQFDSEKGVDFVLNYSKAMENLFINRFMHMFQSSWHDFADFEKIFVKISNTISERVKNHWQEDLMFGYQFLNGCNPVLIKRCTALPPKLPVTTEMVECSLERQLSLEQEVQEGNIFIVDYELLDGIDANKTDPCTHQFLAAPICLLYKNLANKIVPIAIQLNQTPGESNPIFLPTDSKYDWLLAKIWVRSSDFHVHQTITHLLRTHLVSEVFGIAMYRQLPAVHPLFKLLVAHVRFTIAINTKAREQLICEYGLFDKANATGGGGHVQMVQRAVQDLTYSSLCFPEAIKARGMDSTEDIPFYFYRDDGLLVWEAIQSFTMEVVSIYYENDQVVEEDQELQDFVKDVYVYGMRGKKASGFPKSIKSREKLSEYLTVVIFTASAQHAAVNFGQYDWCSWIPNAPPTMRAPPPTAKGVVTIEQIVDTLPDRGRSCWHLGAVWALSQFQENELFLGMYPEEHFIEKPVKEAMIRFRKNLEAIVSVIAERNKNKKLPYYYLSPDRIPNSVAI
As to conditions: once-daily oral agent; cited from earlier work.

For test [2] the following is noted: mice, once-daily oral dose; cited from earlier work.
For test [3] the following is noted: 6 ng intratracheally per animal, 6 hours after administration, mice; cited from earlier work.
The test system of the next test is peritoneal macrophages. As to conditions: cited from earlier work.
In test [4] the test system is alveolar macrophages from 5-LO knockout mice. The test can be described thus: Phagocytosis of K. pneumoniae by alveolar macrophages from 5-LO knockout mice (phagocytic index). Format: cell-based, mouse. Conditions: 5-LO knockout alveolar macrophages. As to the method: as §1
Cultured alveolar macrophages from knockout mice were incubated in the presence of specific serum for 1 hour with K. pneumoniae alone or in the presence of varying doses of LTB4. Phagocytic index was calculated as described in the General Methods. FIG. 6 graphically depicts the effect of exogenous LTB4 (none, 0.1 nM, and 5 nM LTB4 added) on bacterial phagocytic activity in alveolar macrophages from 5-LO KO mice; each value represents the mean from triplicate cultures. […] Though not required in order to practice the present invention, it is believed that neutrophils manifest similar functional defects in phagocytosis and killing which could contribute to the sensitivity to bacterial pneumonia seen in knockout mice in vivo.

A further test concerns Schistosoma mansoni. As to conditions: neutrophils; cited from earlier work.
For test [5], the system named is neutrophils from 5-LO knockout mice. As to the kind of experiment: Phagocytosis of K. pneumoniae by glycogen-elicited peritoneal neutrophils from 5-LO knockout mice. The test is classed as cell-based, mouse. As to conditions: 1 nM LTB4, one hour. As to the method: as §1
To obtain peritoneal elicited neutrophils, mice are injected intraperitoneally with 5% glycogen in PBS and peritoneal lavage is performed 5 hours later. Approximately 3×10^6 cells are obtained from each animal, approximately 85-90% of which are neutrophils. These cells are likewise placed into culture for functional studies. […]

The next test has as its system K. pneumoniae. The test can be described thus: Pulmonary bacterial clearance (lung homogenate CFU) after intratracheal K. pneumoniae challenge in 5-LO knockout mice. The test is classed as in vivo, mouse. As to the method: K. pneumoniae strain 43816, serotype 2 obtained from the ATCC (Assession No. 29939) was grown in tryptic soy broth (Difco) for 18 hours at 37° C. The preparation and intratracheal administration of K. pneumoniae were carried out as described by M. Schneemann et al. [J. Infect. Dis. 167:1358-1363 (1993)]. Bacterial concentration was determined by measuring absorbance at 600 nm and referencing to a standard curve of absorbances vs. known standard CFUs. Bacteria were then pelleted by centrifugation for 30 min at 10,000 rpm, washed ×2 in saline, and resuspended at the desired concentration in saline.
After appropriate dilution of bacteria in endotoxin-free saline, animals were anesthetized with sodium pentobarbital (approximately 0.2 mL diluted 1:7 in saline intraperitoneally) and the trachea was exposed via a small midline incision. […]
Plasma and lung CFU were determined as described by M. Schneemann et al. [J. Infect. […]
LTB4 was administered together with the intratracheal inoculum of K. pneumoniae (50 CFU). […] Second, the present inventors previously found (see FIG. 5) that approximately 7 ng of total LTB4 could be measured in the homogenate of a pair of lungs from Klebsiella-challenged wild type mice. […] Following 24 hours of bacterial inoculation, lungs were harvested and lung homogenate CFUs were determined.

The next test concerns S. typhimurium. As to conditions: intraperitoneal injection; cited from earlier work.
The conditions of test [6]: in vivo bronchoscopic instillation into the human lung; cited from earlier work.
The conditions of test [7]: administered orally to rats; cited from earlier work.
Where [8] appears, read: normal rat alveolar macrophages, 1 nM, 1 hour with K. pneumoniae.

SMILES strings stand for the structures. Read-outs that look alike come from different tables or passages of the source.

Turning to `CCCCC/C=C\C/C=C\C/C=C\C=C\[C@@H](O)CCCC(=O)O` [5-HETE], the “effect on phagocytic index” value in [1] (setting [8]) was “similar, though less pronounced, effect”.
In the case of `C[C@H](C#Cc1ccc(Oc2ccc(F)cc2)o1)N(O)C(N)=O` [A-79175], the “efficacy in mice” value at 5-LO was “demonstrated efficacy in mice”.
Take `O=C(O)C1(c2ccc3c(c2)OC[C@H](Cc2ccc(-c4ccccc4)cc2)[C@H]3O)CCCC1` [CP-105,696]: the “collagen-induced arthritis” value in [2] was “inhibited collagen-induced arthritis”.
With `CCCCC/C=C\C[C@@H](O)/C=C/C=C/C=C\[C@@H](O)CCCC(=O)O` [LTB4, leukotriene B4], the “neutrophil influx” value in test [3] is listed as “brisk neutrophil influx”; in [6], “resulted in neutrophil influx”. Moreover, the “in vitro phagocytosis and killing of P. aeruginosa and Salmonella typhimurium” value with peritoneal macrophages is “enhanced the in vitro phagocytosis and killing”. Also, the “phagocytic index relative to baseline level” value in test [4] (5 nM LTB4, 1 hour with K. pneumoniae, specific serum) is recorded as “approximately three”. In addition, the “increase of phagocytic index” value in test [4] (exogenous LTB4) is “approximately 300%”. Moreover, the “effect on phagocytic index” value in [4] (none, 0.1 nM and 5 nM LTB4) was “dose-dependently enhanced the phagocytic index”. In the test on Schistosoma mansoni, the “in vitro killing of Schistosoma mansoni” value is “enhanced”. Besides, the “effect of LTB4 pretreatment on LTB4-augmented phagocytosis” value in [1] (cells pretreated with LTB4 1 nM for 1 hour, washed, then bacteria plus LTB4 1 nM) is recorded as “almost completely abrogated”. Also, the “increase in phagocytic index” value in test [1] (setting [8]) is “approximately 6 fold”. This compound had a phagocytic index in test [5] of 27±8. Also, in the test on K. pneumoniae (intrapulmonary administration), the “effect on in vivo bacterial clearance” value is listed as “partially overcame the in vivo impairment in bacterial clearance”. Moreover, in the test on K. pneumoniae (single 6 ng intratracheal dose with 50 CFU inoculum, 24 hours), the “reduction of lung CFU” value is given as “approximately 10 fold”. In addition, in the test on S. typhimurium, the “in vivo clearance of S. typhimurium” value is given as “enhanced the in vivo clearance”.
For the compound `CCCCC/C=C\C\C=C/C=C/C=C/[C@@H](SC[C@H](NC(=O)CC[C@H](N)C(=O)O)C(=O)NCC(=O)O)[C@@H](O)CCCC(=O)O` [LTC4, leukotriene C4], the “effect on phagocytic index” value in [1] (setting [8]) is “augmented phagocytosis to a degree similar to LTB4”.
`CN(C)C(=O)CCSC(SCCC(=O)O)c1cccc(/C=C/c2ccc3ccc(Cl)cc3n2)c1` (stereo not drawn) [MK-571]: the “antigen-induced bronchoconstriction” value in test [7] is “effectively inhibited antigen-induced bronchoconstriction”.
